Like-named read-outs stand apart in the source and are kept apart here.
Target: T1, human CCR7 (Homo sapiens, UniProt P32248)
T1 construct: expressed in transfected cells
T1 sequence (P32248 25-378): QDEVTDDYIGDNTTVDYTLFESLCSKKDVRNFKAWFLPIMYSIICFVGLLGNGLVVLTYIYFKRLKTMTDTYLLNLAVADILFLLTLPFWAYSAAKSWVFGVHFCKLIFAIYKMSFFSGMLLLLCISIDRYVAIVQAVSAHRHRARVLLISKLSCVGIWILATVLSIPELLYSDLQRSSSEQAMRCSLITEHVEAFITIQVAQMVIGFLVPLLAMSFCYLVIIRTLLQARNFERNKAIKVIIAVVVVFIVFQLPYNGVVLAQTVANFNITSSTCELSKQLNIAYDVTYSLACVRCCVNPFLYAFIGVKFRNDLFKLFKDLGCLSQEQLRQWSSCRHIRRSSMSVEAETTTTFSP
Assay: CCL19-induced calcium mobilization assay, U87.CD4 cells expressing CCR7
Format: cell-based
Conditions: for IC50: read-out: IC50 [μM] block CCL19 induced calcium signaling
Summary of the method: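 Calcium mobilization was recorded in U87.CD4 cells stably carrying human CXCR2 (stimulated with CXCL8), CCR7 (stimulated with CCL19) or CCR5. Cells were plated at 20,000 cells/well, cultured overnight at 37°C in 5% CO2, and incubated 45 min at room temperature in the dark before reading.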

[1] = CCL19-induced calcium signaling
[2] = classification of tested compounds as decoy or active
[3] = CCL19 induced calcium signaling
[4] = classification as decoy or active on CCR7

SMILES	IC50 [1] [µM]	Decoy – 0 Active – 1 [2]	IC50 [3] [µM]	Decoy – 0 Active – 1 [4]
COc1ccc(CNc2c(NCc3ccc4c(c3)OCO4)c(=O)c2=O)cc1 [C012, COc1ccc(CNc2c(NCc3ccc4c(c3)OCO4)c(=O)c2=O)cc1]	> 50	0		
O=C(NC1CCC(C(=O)N2CCCCC2)C1)NC1C2Cc3cc(F)ccc3C21 (stereo not drawn) [C227, O=C(NC1CCC(C(=O)N2CCCCC2)C1)NC1C2Cc3cc(F)ccc3C21]			> 50	0
CC1(C)Cc2nc(C(C)(C)C)ncc2C(NC(=O)c2cc(C(F)(F)F)n[nH]2)C1 (stereo not drawn) [C177, CC1(C)Cc2nc(C(C)(C)C)ncc2C(NC(=O)c2cc(C(F)(F)F)n[nH]2)C1]			> 50	0
Cn1cc(C2CN(S(=O)(=O)c3ccc4c(c3)CCCC4)CC2CO)cn1 (stereo not drawn) [C269, Cn1cc(cn1)C2CN(CC2CO)S(=O)(=O)c3ccc4c(c3)CCCC4]			> 50	0
O=C(CN(c1ccc(Br)cc1)S(=O)(=O)c1ccccc1)Nc1ccccc1C(=O)N1CCOCC1 [C233, c1ccc(cc1)S(=O)(=O)N(CC(=O)Nc2ccccc2C(=O)N3CCOCC3)c4ccc(cc4)Br]			> 50	0
COc1ccc(S(=O)(=O)Nc2ccccc2C(=O)N2CCOCC2)cc1Br [C251, COc1ccc(cc1Br)S(=O)(=O)Nc2ccccc2C(=O)N3CCOCC3]			> 50	0
O=C(NCc1ccccc1N1CCOCC1)c1nc2ccccc2c(=O)[nH]1 [C201, O=C(NCc1ccccc1N1CCOCC1)c1nc2ccccc2c(=O)[nH]1]			> 50	0
CN(C)CCNC(=S)Nc1cc(C(F)(F)F)cc(C(F)(F)F)c1 [C041, S=C(NCCN(C)C)NC1=CC(C(F)(F)F)=CC(C(F)(F)F)=C1]	> 50	0		
CN(C)C(=O)c1ccc(CN2CCCC2c2cccc(Cl)c2)[nH]1 (stereo not drawn) [C287, CN(C)C(=O)c1ccc(CN2CCCC2c2cccc(Cl)c2)[nH]1]			> 50	0
CNC(=O)c1ccc(C=CC(=O)N(C2CC2)C(C)c2ccco2)cc1 (stereo not drawn) [C055, CNC(=O)c1ccc(C=CC(=O)N(C2CC2)C(C)c2ccco2)cc1]	> 10	0		
COc1c[nH]c(C(=O)NC(c2cccnc2)C(F)(F)F)cc1=O (stereo not drawn) [C213, COc1c[nH]c(C(=O)NC(c2cccnc2)C(F)(F)F)cc1=O]			> 50	0
NC(=O)c1cc(NCC(=O)NCc2ccco2)ccc1Cl [C067, NC(=O)c1cc(NCC(=O)NCc2ccco2)ccc1Cl]	> 10	0		
CC(C)c1ccc(S(=O)(=O)N2CCN(C)CC2c2ccccc2)cc1 (stereo not drawn) [C237, CC(C)c1ccc(cc1)S(=O)(=O)N2CC[NH+](CC2c3ccccc3)C]			> 50	0
CN(C)C(=O)c1cccc(CN2CCC[C@@H]2C[C@H](O)c2cnn(C)c2)c1 [C110, CN(C)C(=O)c1cccc(C[N@@H+]2CCC[C@@H]2C[C@H](O)c2cnn(C)c2)c1]	> 50	0		
Cc1cccc2c(=O)n(CCC(=O)N[C@@H](c3ccccc3)C(C)C)cnc12 [C131, Cc1cccc2c(=O)n(CCC(=O)N[C@@H](c3ccccc3)C(C)C)cnc12]	> 50	0		
O=C(NCC(=O)N1CCCC1c1ccc2c(c1)OCO2)c1cc2ccccc2[nH]1 (stereo not drawn) [C285, O=C(NCC(=O)N1CCCC1c1ccc2c(c1)OCO2)c1cc2ccccc2[nH]1]			> 50	0
COc1ccc2ccccc2c1CNc1c(N2CCSCC2)c(=O)c1=O [C004, COc1ccc2ccccc2c1CNc1c(N2CCSCC2)c(=O)c1=O]	> 50	0		
Cc1ccccc1C(O)CNC(=O)NCCc1cccc(C(N)=O)c1 (stereo not drawn) [C217, Cc1ccccc1C(O)CNC(=O)NCCc1cccc(C(N)=O)c1]			> 50	0
CNC(=O)c1ccc(C=CC(=O)N(Cc2ccsc2)C2CC2)cc1 [C059, CNC(=O)c1ccc(C=CC(=O)N(Cc2ccsc2)C2CC2)cc1]	> 10	0		
O=C(CN1CCCC1Cc1ccccc1Cl)NC1CCCCNC1=O (stereo not drawn) [C284, O=C(CN1CCCC1Cc1ccccc1Cl)NC1CCCCNC1=O]			> 50	0
COC[C@@H](NC1=NS(=O)(=O)c2ccccc21)c1ccc(C)o1 [C134, COC[C@@H](NC1=NS(=O)(=O)c2ccccc21)c1ccc(C)o1]	> 50	0		
CN(C)C(=O)c1cc(NCC(=O)NCc2ccco2)ccc1F [C064, CN(C)C(=O)c1cc(NCC(=O)NCc2ccco2)ccc1F]	> 10	0		
O=S1(=O)N=C(NCc2ccccn2)c2ccccc21 [C149, O=S1(=O)N=C(NCc2ccccn2)c2ccccc21]	> 50	0		

SMILES	IC50 [1] [µM]	Decoy – 0 Active – 1 [2]	IC50 [3] [µM]	Decoy – 0 Active – 1 [4]
Cc1ccc(N=C(N)C(N)=Nc2ccc(C)cc2)cc1 [C065, Cc1ccc([NH+]=C(N)C(N)=[NH+]c2ccc(C)cc2)cc1]	> 10	0		
Cc1nc[nH]c1C(=O)NC1CC(=O)N(Cc2cccc3ccccc23)C1 (stereo not drawn) [C276, Cc1nc[nH]c1C(=O)NC1CC(=O)N(Cc2cccc3ccccc23)C1]			> 50	0
CCOC(=O)NC(=S)Nc1ccc2nsnc2c1 [C044, S=C(NC1=CC2=NSN=C2C=C1)NC(OCC)=O]	> 30	0		
COc1ccc(S(=O)(=O)NC(c2ccc(F)cc2)c2nccn2C)cc1 (stereo not drawn) [C267, Cn1ccnc1C(c2ccc(cc2)F)NS(=O)(=O)c3ccc(cc3)OC]			> 50	0
O=C(Nc1ccc(Cl)cc1Cl)NC(Cc1ccc(O)cc1)C(=O)O (stereo not drawn) [C184, O=C(Nc1ccc(Cl)cc1Cl)NC(Cc1ccc(O)cc1)C(=O)[O-]]			> 50	0
O=C(NCc1ccccc1)c1cn(C2CN(C(=O)C3CC3)C2)nn1 [C081, O=C(NCc1ccccc1)c1cn(C2CN(C(=O)C3CC3)C2)nn1]	> 50	0		
C[C@@H]1CCN(Cc2ccccc2)C[C@H]1Nc1ccc([N+](=O)[O-])c(C(N)=O)c1 [C117, C[C@@H]1CC[N@H+](Cc2ccccc2)C[C@H]1Nc1ccc([N+](=O)[O-])c(C(N)=O)c1]	> 50	0		
CN1CCN(CCC2CCCCN2Cc2nc3ccccc3[nH]2)CC1 (stereo not drawn) [C275, CN1CCN(CCC2CCCCN2Cc2nc3ccccc3[nH]2)CC1]			> 50	0
Cc1sc(NC(=S)NC(=O)CCc2ccccc2)c(C(N)=O)c1C [C029, Cc1sc(NC(=S)NC(=O)CCc2ccccc2)c(C(N)=O)c1C]	> 30	0		
CN(C)C(=O)c1cc(NC(=O)NCC(C)(C)c2ccccc2)ccn1 [C129, CN(C)C(=O)c1cc(NC(=O)NCC(C)(C)c2ccccc2)ccn1]	> 50	0		
C[C@@H](CNC(=O)N[C@H]1CCO[C@@H](c2ccccc2)C1)c1ccsc1 [C108, C[C@@H](CNC(=O)N[C@H]1CCO[C@@H](c2ccccc2)C1)c1ccsc1]	> 50	0		
O=C(CCCc1ccccc1)N[C@H]1CCN(CC(F)(F)F)C1=O [C096, O=C(CCCc1ccccc1)N[C@H]1CCN(CC(F)(F)F)C1=O]	> 50	0		
Cc1cnc([C@@H](C)CNC(=O)Nc2ccc3c(c2)S(=O)(=O)CC3)s1 [C113, Cc1cnc([C@@H](C)CNC(=O)Nc2ccc3c(c2)S(=O)(=O)CC3)s1]	> 50	0		
CCc1cccc(NC(=S)NNC(=O)c2cccc([N+](=O)[O-])c2)c1 [C033, CCc1cccc(NC(=S)NNC(=O)c2cccc(c2)[N+]([O-])=O)c1]	> 30	0		
CCCNC(=O)CNc1ccc(C)c(C(=O)N(C)C)c1 [C066, CCCNC(=O)CNc1ccc(C)c(C(=O)N(C)C)c1]	> 10	0		
O=S1(=O)N=C(NCc2ccco2)c2ccccc21 [C148, O=S1(=O)N=C(NCc2ccco2)c2ccccc21]	> 50	0		
COc1ccc(S(=O)(=O)N(CC(=O)NCc2ccccn2)Cc2ccccc2)cc1 [C259, COc1ccc(cc1)S(=O)(=O)N(Cc2ccccc2)CC(=O)NCc3ccccn3]			> 50	0
CN(C)C(=O)c1cccc(NCC(=O)NCC2(c3ccccc3)CCC2)c1 [C052, CN(C)C(=O)c1cccc(NCC(=O)NCC2(c3ccccc3)CCC2)c1]	> 10	0		
CC1(C)[C@H]2CC[C@@]1(CNc1c(NCc3cc(C(F)(F)F)cc(C(F)(F)F)c3)c(=O)c1=O)[C@H](N1CCCC1)C2 [C019, O=C1C(NC[C@]23CC[C@H](C3(C)C)C[C@H]2N4CCCC4)=C(NCC5=CC(C(F)(F)F)=CC(C(F)(F)F)=C5)C1=O]	> 50	0		
Cc1ccc(NC(=O)CN(C)C[C@@H]2CCCO2)cc1[N+](=O)[O-] [C106, Cc1ccc(NC(=O)C[N@@H+](C)C[C@@H]2CCCO2)cc1[N+](=O)[O-]]	> 50	0		
C[C@@H](NC(=O)c1nnc(-c2ccc(S(=O)(=O)N(C)C)cc2)o1)c1ccccn1 [C092, C[C@@H](NC(=O)c1nnc(-c2ccc(S(=O)(=O)N(C)C)cc2)o1)c1ccccn1]	> 50	0		
O=C(NCc1cccnc1-n1ccnc1)c1cc2ccccc2c(=O)[nH]1 [C215, O=C(NCc1cccnc1-n1ccnc1)c1cc2ccccc2c(=O)[nH]1]			> 50	0
